{"source": "patent US11098009B2", "about": "“Amidine substituted analogues and uses thereof” (Verlyx Pharma Inc., priority 2016, dated 2021)", "key": {"HCT-116 cells": {"system": "HCT-116 cells", "test": "HCT assay: real-time proliferation assay using xCELLigence system", "format": "cell-based", "settings": "xCELLigence impedance", "experimental": "The compounds were evaluated in a proliferation assay using HCT-116 cells using an xCELLigence system. Briefly, the xCELLigence system monitors cellular events in real time by measuring electrical impedance across interdigitated micro-electrodes integrated on the bottom of tissue culture E-Plates. The impedance measurement provides quantitative information about the biological status of the cells, including cell number, viability, and morphology. Real-time proliferation assays were then to determine the IC50 values. All proliferation assays start 24 hours after the transfection."}, "[1]": {"system": "GalN/LPS fulminant liver injury", "test": "GalN/LPS fulminant liver injury model, Study a (survival)", "format": "in vivo, C57BL/6 mice", "experimental": "A Galactosamine/Liposaccharide (GalN/LPS) fulminant liver injury model may be used to evaluate the anti-inflammatory, anti-TNFα and hepatoprotective properties of the compound of the description.\nMice were maintained under 12 h light/dark cycles with unlimited access to food and water. Study was performed in 6- to 14-week old male mice. C57BL/6 mice were used. Mice are first injected with pentamidine or Example 2 compound (IP injection). 30 minutes later, liver injury is induced by intraperitoneal injections of 100 μg/kg of LPS (E. coli 0111:B4) and 700 mg/kg of GalN (Sigma) dissolved in phosphate-buffered saline (PBS).\nThe tested compounds were be dosed IP 30-minutes prior to the co-treatment with galactosamine (GalN) and endotoxin (Lipopolysaccharide) LPS. Mice were either sacrificed at 6.5 hours after GalN/LPS for ALT analysis, or kept for longer periods to evaluate survival. The analysis of alanine transaminase (ALT) serum levels and histological observations allow the evaluation of the hepatoprotective, anti-TNF-α, anti-inflammatory and/or anti-fibrotic activity.\nSurvival was evaluated at two time points, i.e. 8 and 23 hours. In controls group receiving PBS prior to the GalN/LPS liver injury, no mice survived 8 hours. […] In the case of trihexamidine isethionate, all mice survived more than 23 hours with 10 mg/kg (8.6 μmole/kg) doses."}, "[2]": {"system": "DSS-induced acute colitis", "test": "DSS-induced acute colitis in mice (Disease Activity Index)", "format": "in vivo, C57BL/6 ELITE mice", "settings": "2.5% DSS; 2.5 and 5 mg/kg IP q.d. D1-D6, termination D7; FIG. 5", "experimental": "Dextran Sulfate Sodium 2.5% stocks were prepared by adding tap water in the pre-weighed powder. DSS solutions will be changed every 3 days for all groups, i.e. on Day 1 (D1) and Day 4 (D4).\nFormulations for Intraperitoneal Administration: • Vehicle: sterile double distilled water (DDW) • For Pentamidine (Penta) and Compounds 2 and 4, the compounds were dissolved in DDW and dosed at 2 mL/kg to yield the indicated doses. In-Vivo Study\nMale C57BL/6 ELITE mice of ˜7-8 weeks old were used. After 5-day acclimatization period in animal facility, all mice were weighed and given tap water containing 2.5% DSS on Day 1, treatment also starts on Day 1.\nAnimals were dosed from D1 to D6, once daily by IP injection (2 mL/kg). Animals were terminated on D7. The Disease Activity Index (DAI) scale is based on the evaluation of different parameters characterizing experimental colitis induction and progression. Body weight, presence of gross blood in the feces and stool consistency will be recorded daily.\n• Weight loss: 0=none; 1=1 to 5%; 2=5 to 10%; 3=_10 to 20%; 4=>20% • Stool consistency: 0=normal; 2=loose; 4=diarrhea • Rectal bleeding: 0=normal; 2=occult bleeding; 4=gross bleeding\nOn Day 7, mice will be weighed and disease scores evaluated, and then euthanized by CO2 inhalation."}, "[3]": {"system": "GalN/LPS fulminant liver injury", "test": "GalN/LPS fulminant liver injury model, Study b (serum ALT)", "format": "in vivo, C57BL/6 mice", "settings": "for Hepatoprotection at lower doses: 10 mg/kg (4.3 and 8.6 μmole/kg) for C2, 5 and 10 mg/kg (3.3 and 6.6 μmole/kg) for C4, 5 mg/kg (6.3 mole/kg [sic]) for C5; for Hepatoprotection in the model (low ALT activity levels following GalN/LPS): FIG. 3; for ALT: GalN-LPS 700 mg/kg - 10 μg/kg, 6 hours post injury, WFI control 5989", "experimental": "(§1) Mice were maintained under 12 h light/dark cycles with unlimited access to food and water. Study was performed in 6- to 14-week old male mice. C57BL/6 mice were used. Mice are first injected with pentamidine or Example 2 compound (IP injection). […]\n(§2) All doses were administered IP to six mice (n=6), 30 minutes prior to the injection of the GalN and LPS, when applicable to the group. Blood samples were collected exactly 6 hours post GalN/LPS injections, or 6.5 hours after vehicle injections.\n(§3) The tested compounds were dosed IP 30 minutes prior to the co-treatment with galactosamine (GalN) and endotoxin (Lipopolysaccharide) LPS. Mice were sacrificed at 6 hours after GalN/LPS for ALT analysis. The analysis of alanine transaminase (ALT) serum levels allows the evaluation of the hepatoprotective, anti-TNF-α, anti-inflammatory and/or anti-fibrotic activity."}, "[4]": {"system": "GalN/LPS fulminant liver injury", "test": "GalN/LPS fulminant liver injury model, Study c (serum ALT)", "format": "in vivo, C57BL/6 mice", "settings": "for ALT: GalN-LPS 700 mg/kg - 10 μg/kg, 6 hours post injury, WFI control 4403", "experimental": "as §1, §2, §3"}, "[5]": {"settings": "Homo sapiens, HCT-116, HCT-116 cells"}}, "note": "pIC50: −log10 of the molar value. Where a name gives a salt, the structure may show the parent alone.", "data": [{"compound": "N=C(N)c1ccc(OCCCCCCOc2cc(OCCCCCCOc3ccc(C(=N)N)cc3)cc(OCCCCCCOc3ccc(C(=N)N)cc3)c2)cc1", "note": "[Compound 1, Trihexamidine Formate]", "values": [{"measurement": "pIC50", "setting": "HCT-116 cells; [5]", "result": 5.72}]}, {"compound": "N=C(N)c1ccc(OCCCCCCOc2cc(OCCCCCCOc3ccc(C(=N)N)cc3)cc(OCCCCCCOc3ccc(C(=N)N)cc3)c2)cc1", "note": "[Compound 2, Trihexamidine Isethionate]", "values": [{"measurement": "Survival (all mice) post GalN/LPS", "setting": "[1]; 10 mg/kg (8.6 μmole/kg) IP 30 min before GalN/LPS", "result": "more than 23 hours"}, {"measurement": "pIC50", "setting": "HCT-116 cells; HCT-116 cells", "result": 5.58}, {"measurement": "Disease activity index", "setting": "[2]", "result": "reduced the disease activity index"}, {"measurement": "Hepatoprotection at lower doses", "setting": "[3]", "result": "Significant hepatoprotection"}, {"measurement": "Hepatoprotection in the model (low ALT activity levels following GalN/LPS)", "setting": "[3]", "result": "hepatoprotective"}, {"measurement": "ALT", "setting": "[3]; IP dose 5 mg/kg in WFI", "result": 2184, "unit": "IU/L"}, {"measurement": "ALT", "setting": "[3]; IP dose 10 mg/kg in WFI", "result": 890, "unit": "IU/L"}]}, {"compound": "N=C(N)c1ccc(OCCCCCCCCOc2cc(OCCCCCCCCOc3ccc(C(=N)N)cc3)cc(OCCCCCCCCOc3ccc(C(=N)N)cc3)c2)cc1", "note": "[Compound 3, Trioctamidine Isethionate]", "values": [{"measurement": "pIC50", "setting": "HCT-116 cells; [5]", "result": 5.18}]}, {"compound": "N=C(N)c1ccc(OCCCOc2cc(OCCCOc3ccc(C(=N)N)cc3)cc(OCCCOc3ccc(C(=N)N)cc3)c2)cc1", "note": "[Compound 4, Tripropamidine Formate]", "values": [{"measurement": "Hepatoprotection in the model (low ALT activity levels following GalN/LPS)", "setting": "[4]; Study c, FIG. 4", "result": "dose-dependent hepatoprotection"}, {"measurement": "Hepatoprotection at stated doses", "setting": "[4]; Study c, 0.625 mg/kg, 1.25 mg/kg and 2.5 mg/kg IP", "result": "Significant hepatoprotection"}, {"measurement": "ALT", "setting": "[4]; Study c, IP dose 0.625 mg/kg in WFI", "result": 1755, "unit": "IU/L"}, {"measurement": "ALT", "setting": "[4]; Study c, IP dose 1.25 mg/kg in WFI", "result": 1090, "unit": "IU/L"}, {"measurement": "ALT", "setting": "[4]; Study c, IP dose 2.5 mg/kg in WFI", "result": 555, "unit": "IU/L"}, {"measurement": "pIC50", "setting": "HCT-116 cells; [5]", "result": 4.42}, {"measurement": "Disease activity index", "setting": "[2]", "result": "reduced the disease activity index"}, {"measurement": "Hepatoprotection at lower doses", "setting": "[3]", "result": "Significant hepatoprotection"}, {"measurement": "Hepatoprotection in the model (low ALT activity levels following GalN/LPS)", "setting": "[3]", "result": "hepatoprotective"}, {"measurement": "ALT", "setting": "[3]; IP dose 5 mg/kg in WFI", "result": 731, "unit": "IU/L"}]}, {"compound": "N=C(N)c1ccc(OCCCCCOc2ccc(C(=N)N)cc2)cc1", "note": "[Pentamidine, pentamidine, reference compound]", "values": [{"measurement": "Survival at 8 hours post GalN/LPS", "setting": "[1]; 25 mg/kg IP 30 min before GalN/LPS", "result": "only the 40 mg/kg (67 μmole/kg) group benefited"}, {"measurement": "Survival at 8 hours post GalN/LPS", "setting": "[1]; 40 mg/kg (67 μmole/kg) IP 30 min before GalN/LPS, PBS controls: no mice survived 8 hours", "result": "benefited from hepatoprotective properties"}, {"measurement": "Survival at 23 hours post GalN/LPS", "setting": "[1]; 25 and 40 mg/kg IP 30 min before GalN/LPS", "result": "none survived"}, {"measurement": "Hepatoprotection (positive control)", "setting": "[4]; Study c text, 50 mg/kg (84 μmole/kg)", "result": "benefited from hepatoprotective properties"}, {"measurement": "Hepatoprotection (positive control)", "setting": "[3]; 50 mg/kg (84 μmole/kg)", "result": "benefited from hepatoprotective properties"}, {"measurement": "ALT", "setting": "[3]; IP dose 50 mg/kg in WFI", "result": 306, "unit": "IU/L"}]}, {"compound": "Triamidine Formate (Chain Average Mn 1000) [Compound 5]", "values": [{"measurement": "HCT-116 IC50", "setting": "HCT-116 cells; HCT-116 cells", "result": "∞"}, {"measurement": "Hepatoprotection at lower doses", "setting": "[3]", "result": "Significant hepatoprotection"}, {"measurement": "Hepatoprotection in the model (low ALT activity levels following GalN/LPS)", "setting": "[3]", "result": "hepatoprotective"}, {"measurement": "ALT", "setting": "[3]; IP dose 5 mg/kg in WFI", "result": 1072, "unit": "IU/L"}, {"measurement": "ALT", "setting": "[3]; IP dose 10 mg/kg in WFI", "result": 689, "unit": "IU/L"}]}]}
